Measured values: US20250143304A1, “INSECT, ACARINA AND NEMATODE PEST CONTROL” (SYNGENTA CROP PROTECTION AG, priority 2022, published 2025)
Read-outs that look alike come from different tables or passages of the source.

Test system: Spodoptera littoralis (Egyptian cotton leaf worm)
Test: Spodoptera littoralis (Egyptian cotton leaf worm) feeding/contact activity assay, mortality on cotton leaf discs; synergy by COLBY formula
Type: in vivo
Text: A synergistic effect exists whenever the action of an active ingredient combination is greater than the sum of the actions of the individual components. The action to be expected E for a given active ingredient combination obeys the so-called COLBY formula and can be calculated as follows (COLBY, S.R. “Calculating synergistic and antagonistic responses of herbicide combination”. Weeds, Vol. 15, pages 20-22 1967): • ppm=milligrams of active ingredient (a.i.) per liter • X=% action by first active ingredient using p ppm of the active ingredient • Y=% action by second active ingredient using q ppm of the active ingredient.
According to Colby, the expected (additive) action of active ingredients A+B using p+q ppm of active
If the action actually observed O is greater than the expected action E, then the action of the combination is super-additive, i.e. there is a synergistic effect. In mathematical terms, synergism corresponds to a positive value for the difference of (O-E). In the case of purely complementary addition of activities (expected activity), said difference (O-E) is zero. A negative value of said difference (O-E) signals a loss of activity compared to the expected activity.
The synergistic biological activity of combinations of component (A) and component (B) as disclosed herein was assessed using a Spodoptera littoralis (Egyptian cotton leaf worm) feeding/contact activity assay. Cotton leaf discs were placed onto agar in 24-well microtiter plates and sprayed with aqueous test solutions prepared from 10′000 ppm DMSO stock solutions. After drying the leaf discs were infested with L1 larvae. The samples were assessed for mortality 3 days after infestation.

[1] = Spodoptera littoralis, foliar, 72 h, read-out: Mortality (%) Observed (%)
[2] = single component alone at 7.8125 mg/L, 3 days after infestation
[3] = single component alone at 15.625 mg/L, 3 days after infestation
[4] = single component alone at 1.95312 mg/L, 3 days after infestation
[5] = single component alone at 3.90625 mg/L, 3 days after infestation
[6] = single component alone at 31.25 mg/L, 3 days after infestation
[7] = single component alone at 62.5 mg/L, 3 days after infestation
[8] = single component alone at 125 mg/L, 3 days after infestation
[9] = single component alone at 250 mg/L, 3 days after infestation

SMILES: CCC(=O)NCc1ccc(C2=NO[C@@](c3cc(Cl)c(F)c(Cl)c3)(C(F)(F)F)C2)c2c1OCC2 [A-1, N-[[4-[(5S)-5-(3,5-dichloro-4-fluorophenyl)-5-(trifluoromethyl)-4H-isoxazol-3-yl]-2,3-dihydrobenzofuran-7-yl]methyl]propanamide]
- mortality at 0.0078125 µg/mL [1]: 0%
- mortality at 0.015625 µg/mL [1]: 0%
- mortality at 0.03125 µg/mL [1]: 0%
- mortality at 0.0625 µg/mL [1]: 80%
- mortality at 0.125 µg/mL [1]: 100%

SMILES: CC1(NC(=O)c2cccc3nn(-c4cccnc4)cc23)CC1 [B-4, indazapyroxamet]
- Mortality (%) Observed (%) [2]: 0%
- Mortality (%) Observed (%) [3]: 0%

SMILES: C[n+]1c([O-])c(-c2ccccc2)c(=O)n2c1SC[C@@H]2c1cnc(Cl)s1 [B-5, fenmezoditiaz]
- Mortality (%) Observed (%) (single component alone at 0.488281 mg/L, 3 days after infestation): 0%
- Mortality (%) Observed (%) (single component alone at 0.976562 mg/L, 3 days after infestation): 0%
- Mortality (%) Observed (%) [4]: 0%
- Mortality (%) Observed (%) [5]: 0%
- Mortality (%) Observed (%) [2]: 0%

SMILES: CCS(=O)(=O)c1cccnc1-c1cnc(OCC(F)(F)C(F)(F)F)cn1 [B-17, 2-(3-ethylsulfonyl-2-pyridyl)-5-(2,2,3,3,3-pentafluoropropoxy)pyrazine]
- mortality at 0.0390625 µg/mL (Spodoptera littoralis, foliar, 72 h, single component alone at 0.0390625 mg/L, 3 days after infestation, read-out: Mortality (%) Observed (%)): 0%
- mortality at 0.078125 µg/mL (Spodoptera littoralis, foliar, 72 h, single component alone at 0.078125 mg/L, 3 days after infestation, read-out: Mortality (%) Observed (%)): 0%
- mortality at 0.15625 µg/mL (Spodoptera littoralis, foliar, 72 h, single component alone at 0.15625 mg/L, 3 days after infestation, read-out: Mortality (%) Observed (%)): 0%
- mortality at 0.3125 µg/mL (Spodoptera littoralis, foliar, 72 h, single component alone at 0.3125 mg/L, 3 days after infestation, read-out: Mortality (%) Observed (%)): 0%
- mortality at 0.625 µg/mL (Spodoptera littoralis, foliar, 72 h, single component alone at 0.625 mg/L, 3 days after infestation, read-out: Mortality (%) Observed (%)): 0%
- mortality at 1.25 µg/mL (Spodoptera littoralis, foliar, 72 h, single component alone at 1.25 mg/L, 3 days after infestation, read-out: Mortality (%) Observed (%)): 0%
- mortality at 2.5 µg/mL (Spodoptera littoralis, foliar, 72 h, single component alone at 2.5 mg/L, 3 days after infestation, read-out: Mortality (%) Observed (%)): 20%

SMILES: CN/C(=N\[N+](=O)[O-])NCc1cnc(Cl)s1 [B-38, clothianidin]
- mortality at 0.15625 µg/mL [1]: 0%
- mortality at 0.3125 µg/mL [1]: 0%
- mortality at 0.625 µg/mL [1]: 0%
- mortality at 1.25 µg/mL [1]: 0%
- mortality at 2.5 µg/mL [1]: 0%

SMILES: CNC(=O)c1cc(Cl)cc(C)c1NC(=O)c1cc(Br)nn1-c1ncccc1Cl [B-43, chlorantraniliprole]
- mortality at 0.00390625 µg/mL [1]: 0%
- mortality at 0.0078125 µg/mL [1]: 0%
- mortality at 0.015625 µg/mL [1]: 0%
- mortality at 0.03125 µg/mL [1]: 0%
- mortality at 0.0625 µg/mL [1]: 0%
- mortality at 0.125 µg/mL [1]: 0%

SMILES: CC1(C)C(C=C(Cl)Cl)C1C(=O)OC(C#N)c1cccc(Oc2ccccc2)c1 (stereo not drawn) [B-46, alpha-cypermethrin]
- mortality at 0.015625 µg/mL [1]: 0%
- mortality at 0.03125 µg/mL [1]: 0%
- mortality at 0.0625 µg/mL [1]: 0%
- mortality at 0.125 µg/mL [1]: 0%
- mortality at 0.25 µg/mL [1]: 0%
- mortality at 0.5 µg/mL [1]: 60%

SMILES: CCN(C(=O)c1cnn(C(C)C(C)C)c1C)c1ccnnc1 (stereo not shown) [B-133, dimpropyridaz]
- Mortality (%) Observed (%) [3]: 0%
- Mortality (%) Observed (%) [6]: 0%
- Mortality (%) Observed (%) [7]: 0%
- Mortality (%) Observed (%) [8]: 0%
- Mortality (%) Observed (%) [9]: 0%

SMILES: C[C@]1(COC(=O)C2CC2)[C@@H]2C[C@H](O)[C@@]3(C)Oc4cc(-c5cccnc5)oc(=O)c4[C@H](O)[C@@H]3[C@@]2(C)CC[C@@H]1OC(=O)C1CC1 [B-134, afidopyropen]
- Mortality (%) Observed (%) [4]: 0%
- Mortality (%) Observed (%) [5]: 0%
- Mortality (%) Observed (%) [2]: 0%
- Mortality (%) Observed (%) [3]: 0%
- Mortality (%) Observed (%) [6]: 0%
- Mortality (%) Observed (%) [7]: 0%
- Mortality (%) Observed (%) [8]: 0%
- Mortality (%) Observed (%) [9]: 0%
